Results reported in ChEMBL document CHEMBL1134339, “New 1-aryl-3-(4-arylpiperazin-1-yl)propane derivatives, with dual action at 5-HT1A serotonin receptors and serotonin transporter, as a new class of antidepressants” (J Med Chem, 2001).

target: T1, 5-hydroxytryptamine receptor 1A (Rattus norvegicus, UniProt P19327); assay: Binding affinity to 5-hydroxytryptamine 1A receptor (5-HT 1A receptor, serotonin receptor) from rat cortex using [3H]8-OH-DPAT as radioligand; details: not given
T1 sequence (P19327 whole entry): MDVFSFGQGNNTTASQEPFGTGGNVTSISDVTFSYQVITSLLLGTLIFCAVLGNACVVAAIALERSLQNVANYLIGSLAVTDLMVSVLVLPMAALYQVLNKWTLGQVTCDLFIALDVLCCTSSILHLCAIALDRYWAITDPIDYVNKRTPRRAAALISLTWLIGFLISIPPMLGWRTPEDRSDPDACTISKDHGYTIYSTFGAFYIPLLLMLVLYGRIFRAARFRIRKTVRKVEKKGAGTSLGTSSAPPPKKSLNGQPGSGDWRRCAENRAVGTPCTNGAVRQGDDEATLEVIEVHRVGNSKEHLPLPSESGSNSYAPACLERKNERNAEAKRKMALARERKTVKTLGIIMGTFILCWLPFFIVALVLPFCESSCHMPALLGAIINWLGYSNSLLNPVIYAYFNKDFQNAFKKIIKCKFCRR

Ki [nM] | SMILES
115 | OC(CCN1CCN(c2ccccc2Cl)CC1)c1ccccc1 (stereo unspecified)
220 | COc1ccccc1N1CCN(CCC(Oc2cccc3ccccc23)c2cccs2)CC1 (stereo unspecified)
850 | COc1ccccc1N1CCN(CCC(O)c2ccc(-c3ccccc3)cc2)CC1 (stereo unspecified)
3650 | COc1ccccc1N1CCN(CCC(=O)c2ccc(-c3ccccc3)cc2)CC1
145 | OC(CCN1CCN(c2ccc(F)cc2)CC1)c1ccccc1 (stereo unspecified)
7.5 | Cc1cc(C(=O)CCN2CCN(c3ccccc3O)CC2)c(C)s1
35 | O=C(CCN1CCN(c2cccc3ccccc23)CC1)c1ccsc1
90 | Cc1cc(C(O)CCN2CCN(c3ccccc3O)CC2)c(C)s1 (stereo unspecified)
361 | COc1cc(Cl)ccc1N1CCN(CCC(O)c2csc3ccccc23)CC1 (stereo unspecified)
450 | COc1ccccc1N1CCN(CCC(Oc2ccc(C(F)(F)F)cc2)c2ccccc2)CC1 (stereo unspecified)
6.5 | COc1ccccc1N1CCN(CC/C(=N\O)c2ccsc2)CC1
34 | COc1ccccc1N1CCN(CCC(O)c2ccc(C)s2)CC1 (stereo unspecified)
340 | COc1ccccc1N1CCN(CCC(=O)c2ccc([N+](=O)[O-])s2)CC1
155 | OC(CCN1CCN(c2ccccn2)CC1)c1ccccc1 (stereo unspecified)
90 | COc1ccc(OC(CCN2CCN(c3ccccc3OC)CC2)c2ccccc2)cc1 (stereo unspecified)
420 | COc1ccccc1N1CCN(CCC(O)c2ccc3ccccc3c2)CC1 (stereo unspecified)
47.5 | COc1ccccc1N1CCN(CCC(O)c2ccccc2)CC1 (stereo unspecified)
375 | OC(CCN1CCN(c2ncccn2)CC1)c1ccccc1 (stereo unspecified)
120 | O=C(CCN1CCN(c2ncccn2)CC1)c1ccccc1
17.5 | COc1ccccc1N1CCN(CC/C(=N\O)c2ccccc2)CC1
55 | COc1ccccc1N1CCN(CCC(Oc2ccc3c(c2)OCO3)c2ccsc2)CC1 (stereo unspecified)
19 | COc1ccccc1N1CCN(CCC(O)c2cccs2)CC1 (stereo unspecified)
110 | O=C(CCN1CCN(c2ccccc2O)CC1)c1csc2ccccc12
255 | COc1ccccc1N1CCN(CCC(Oc2ccc(C(F)(F)F)cc2)c2ccsc2)CC1 (stereo unspecified)
550 | Clc1ccc(N2CCN(CCC(Oc3ccc4c(c3)OCO4)c3ccccc3)CC2)cc1 (stereo unspecified)
325 | COc1ccc(C(O)CCN2CCN(c3ccccc3OC)CC2)cc1 (stereo unspecified)

same assay, conditions: read-out: Ki

Ki [nM] | SMILES
100 | O=C(CCN1CCN(c2cccc3ccccc23)CC1)c1csc2ccccc12
5 | COc1ccccc1N1CCN(CCC(=O)c2cc(C)sc2C)CC1
1600 | FC(F)(F)c1ccc(OC(CCN2CCN(c3ncccn3)CC2)c2ccccc2)cc1 (stereo unspecified)
500 | COc1cc(Cl)ccc1N1CCN(CCC(=O)c2csc3ccccc23)CC1
> 5000 | O=[N+]([O-])c1ccc(N2CCN(CCC(Oc3ccc(C(F)(F)F)cc3)c3ccccc3)CC2)cc1 (stereo unspecified)
> 5000 | O=[N+]([O-])c1ccc(N2CCN(CCC(O)c3ccccc3)CC2)cc1 (stereo unspecified)
> 5000 | COc1ccc(N2CCN(CCC(O)c3ccccc3)CC2)cc1 (stereo unspecified)
130 | COc1ccccc1N1CCN(CC/C(=N/O)c2cc(C)sc2C)CC1
500 | COc1cc(Cl)ccc1N1CCN(CCC(=O)c2cc(C)sc2C)CC1
180 | O=C(CCN1CCN(c2ccccc2Cl)CC1)c1ccccc1
10 | COc1ccccc1N1CCN(CCC(=O)c2cccs2)CC1
50 | O=C(CCN1CCN(c2ccccn2)CC1)c1ccccc1

target: Sodium-dependent serotonin transporter (Rattus norvegicus, UniProt P31652); assay: Binding affinity towards Serotonin transporter from rat cortex measured using [3H]paroxetine; details: read-out: Ki
Sequence (P31652 whole entry): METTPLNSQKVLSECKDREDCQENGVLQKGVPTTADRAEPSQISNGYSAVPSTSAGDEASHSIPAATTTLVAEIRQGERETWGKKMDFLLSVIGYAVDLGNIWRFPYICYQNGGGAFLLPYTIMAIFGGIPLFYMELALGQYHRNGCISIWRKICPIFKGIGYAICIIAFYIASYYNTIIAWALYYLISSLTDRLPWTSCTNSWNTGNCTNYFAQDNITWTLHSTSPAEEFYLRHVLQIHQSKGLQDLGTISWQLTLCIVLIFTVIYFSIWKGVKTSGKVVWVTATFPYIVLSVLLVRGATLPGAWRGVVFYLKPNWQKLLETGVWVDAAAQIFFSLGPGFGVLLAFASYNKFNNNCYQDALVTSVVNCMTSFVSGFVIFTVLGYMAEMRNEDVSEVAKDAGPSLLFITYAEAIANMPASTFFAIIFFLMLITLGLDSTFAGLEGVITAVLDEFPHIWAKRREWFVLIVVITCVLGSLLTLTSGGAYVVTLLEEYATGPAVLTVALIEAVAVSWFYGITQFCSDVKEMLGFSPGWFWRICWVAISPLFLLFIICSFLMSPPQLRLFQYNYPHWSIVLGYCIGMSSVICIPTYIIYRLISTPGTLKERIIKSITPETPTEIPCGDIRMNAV

Ki [nM] | SMILES
> 5000 | OC(CCN1CCN(c2ccccc2Cl)CC1)c1ccccc1 (stereo unspecified)
> 5000 | COc1ccccc1N1CCN(CCC(Oc2cccc3ccccc23)c2cccs2)CC1 (stereo unspecified)
175 | COc1ccccc1N1CCN(CCC(O)c2ccc(-c3ccccc3)cc2)CC1 (stereo unspecified)
500 | O=C(CCN1CCN(c2cccc3ccccc23)CC1)c1csc2ccccc12
700 | COc1ccccc1N1CCN(CCC(=O)c2ccc(-c3ccccc3)cc2)CC1
4700 | OC(CCN1CCN(c2ccc(F)cc2)CC1)c1ccccc1 (stereo unspecified)
1350 | COc1ccccc1N1CCN(CCC(=O)c2cc(C)sc2C)CC1
800 | Cc1cc(C(=O)CCN2CCN(c3ccccc3O)CC2)c(C)s1
800 | O=C(CCN1CCN(c2cccc3ccccc23)CC1)c1ccsc1
1600 | FC(F)(F)c1ccc(OC(CCN2CCN(c3ncccn3)CC2)c2ccccc2)cc1 (stereo unspecified)
2500 | Cc1cc(C(O)CCN2CCN(c3ccccc3O)CC2)c(C)s1 (stereo unspecified)
275 | COc1cc(Cl)ccc1N1CCN(CCC(=O)c2csc3ccccc23)CC1
2500 | O=[N+]([O-])c1ccc(N2CCN(CCC(Oc3ccc(C(F)(F)F)cc3)c3ccccc3)CC2)cc1 (stereo unspecified)
1150 | O=[N+]([O-])c1ccc(N2CCN(CCC(O)c3ccccc3)CC2)cc1 (stereo unspecified)
1150 | COc1ccc(N2CCN(CCC(O)c3ccccc3)CC2)cc1 (stereo unspecified)
> 5000 | COc1ccccc1N1CCN(CC/C(=N/O)c2cc(C)sc2C)CC1
275 | COc1cc(Cl)ccc1N1CCN(CCC(=O)c2cc(C)sc2C)CC1
> 5000 | O=C(CCN1CCN(c2ccccc2Cl)CC1)c1ccccc1
> 5000 | COc1ccccc1N1CCN(CCC(=O)c2cccs2)CC1

Ki [nM] | SMILES
35 | COc1cc(Cl)ccc1N1CCN(CCC(O)c2csc3ccccc23)CC1 (stereo unspecified)
> 5000 | O=C(CCN1CCN(c2ccccn2)CC1)c1ccccc1
650 | COc1ccccc1N1CCN(CCC(Oc2ccc(C(F)(F)F)cc2)c2ccccc2)CC1 (stereo unspecified)
950 | COc1ccccc1N1CCN(CC/C(=N\O)c2ccsc2)CC1
5000 | COc1ccccc1N1CCN(CCC(O)c2ccc(C)s2)CC1 (stereo unspecified)
> 5000 | COc1ccccc1N1CCN(CCC(=O)c2ccc([N+](=O)[O-])s2)CC1
> 5000 | OC(CCN1CCN(c2ccccn2)CC1)c1ccccc1 (stereo unspecified)
1450 | COc1ccc(OC(CCN2CCN(c3ccccc3OC)CC2)c2ccccc2)cc1 (stereo unspecified)
380 | COc1ccccc1N1CCN(CCC(O)c2ccc3ccccc3c2)CC1 (stereo unspecified)
> 5000 | COc1ccccc1N1CCN(CCC(O)c2ccccc2)CC1 (stereo unspecified)
> 5000 | OC(CCN1CCN(c2ncccn2)CC1)c1ccccc1 (stereo unspecified)
> 5000 | O=C(CCN1CCN(c2ncccn2)CC1)c1ccccc1
5000 | COc1ccccc1N1CCN(CC/C(=N\O)c2ccccc2)CC1
6500 | COc1ccccc1N1CCN(CCC(Oc2ccc3c(c2)OCO3)c2ccsc2)CC1 (stereo unspecified)
1250 | COc1ccccc1N1CCN(CCC(O)c2cccs2)CC1 (stereo unspecified)
490 | O=C(CCN1CCN(c2ccccc2O)CC1)c1csc2ccccc12
460 | COc1ccccc1N1CCN(CCC(Oc2ccc(C(F)(F)F)cc2)c2ccsc2)CC1 (stereo unspecified)
375 | Clc1ccc(N2CCN(CCC(Oc3ccc4c(c3)OCO4)c3ccccc3)CC2)cc1 (stereo unspecified)
500 | COc1ccc(C(O)CCN2CCN(c3ccccc3OC)CC2)cc1 (stereo unspecified)
